From ChEMBL document CHEMBL3045280, “Designing Tetrahydroimidazo[1,2-a]pyridine derivatives via catalyst-free Aza-Diels-Alder reaction (ADAR) and their insecticidal evaluation” (2010)

system: Aphis craccivora; test: Insecticidal activity against Aphis craccivora (cowpea aphid) infested tender soybean shoots exposed to 500 mg/L compound solution assessed as insect mortality measured 24 hr post compound treatment (reference value: 4.1%); assay type: functional

| SMILES | mortality [%] |
| --- | --- |
| N#CC1(C#N)C(c2ccco2)C([N+](=O)[O-])=C2N(Cc3ccc(Cl)nc3)CCN2C1c1cccc([N+](=O)[O-])c1 (configuration not stated) | 0 |
| N#CC1(C#N)C(c2ccco2)C([N+](=O)[O-])=C2N(Cc3ccc(Cl)nc3)CCN2C1c1ccc(Br)cc1Cl (configuration not stated) | 0 |
| N#Cc1ccc(C2N3CCN(Cc4ccc(Cl)nc4)C3=C([N+](=O)[O-])C(c3ccco3)C2(C#N)C#N)cc1 (configuration not stated) | 0 |
| N#CC1(C#N)C(c2ccco2)C([N+](=O)[O-])=C2N(Cc3ccc(Cl)nc3)CCN2C1c1ccc(OC(F)(F)F)c(Cl)c1 (configuration not stated) | 0 |
| N#CC1(C#N)C(c2ccco2)C([N+](=O)[O-])=C2N(Cc3ccc(Cl)nc3)CCN2C1c1ccc(Cl)cc1C(F)(F)F (configuration not stated) | 100 |
| Cc1ccc(F)c(C2N3CCN(Cc4ccc(Cl)nc4)C3=C([N+](=O)[O-])C(c3ccco3)C2(C#N)C#N)c1 (configuration not stated) | 73.9 |
| N#CC1(C#N)C(c2ccco2)C([N+](=O)[O-])=C2N(Cc3ccc(Cl)nc3)CCN2C1c1ccc([N+](=O)[O-])cc1 (configuration not stated) | 0 |
| N#CC1(C#N)C(c2ccco2)C([N+](=O)[O-])=C2N(Cc3ccc(Cl)nc3)CCN2C1c1ccc(F)cc1 (configuration not stated) | 64.21 |
| Cc1ccc(C2N3CCN(Cc4ccc(Cl)nc4)C3=C([N+](=O)[O-])C(c3ccco3)C2(C#N)C#N)c(F)c1 (configuration not stated) | 100 |
| N#CC1(C#N)C(c2ccco2)C([N+](=O)[O-])=C2N(Cc3ccc(Cl)nc3)CCN2C1c1cc(C(F)(F)F)ccc1F (configuration not stated) | 100 |
| Cc1ccc(F)cc1C1N2CCN(Cc3ccc(Cl)nc3)C2=C([N+](=O)[O-])C(c2ccco2)C1(C#N)C#N (configuration not stated) | 0 |
| N#CC1(C#N)C(c2ccco2)C([N+](=O)[O-])=C2N(Cc3ccc(Cl)nc3)CCN2C1c1ccc(Cl)cc1F (configuration not stated) | 56.7 |
| N#CC1(C#N)C(c2ccco2)C([N+](=O)[O-])=C2N(Cc3ccc(Cl)nc3)CCN2C1c1ccccc1 (configuration not stated) | 0 |
| N#CC1(C#N)C(c2ccco2)C([N+](=O)[O-])=C2N(Cc3ccc(Cl)nc3)CCN2C1c1cccc(F)c1F (configuration not stated) | 48.8 |
| N#CC1(C#N)C(c2ccco2)C([N+](=O)[O-])=C2N(Cc3ccc(Cl)nc3)CCN2C1c1ccc(C(F)(F)F)c(F)c1 (configuration not stated) | 96.8 |
| Cc1ccc(C2N3CCN(Cc4ccc(Cl)nc4)C3=C([N+](=O)[O-])C(c3ccco3)C2(C#N)C#N)cc1 (configuration not stated) | 0 |
| N#Cc1cccc(C2N3CCN(Cc4ccc(Cl)nc4)C3=C([N+](=O)[O-])C(c3ccco3)C2(C#N)C#N)c1 (configuration not stated) | 0 |
| CN(C)c1ccc(C2N3CCN(Cc4ccc(Cl)nc4)C3=C([N+](=O)[O-])C(c3ccco3)C2(C#N)C#N)cc1 (configuration not stated) | 0 |
| N#CC1(C#N)C(c2ccco2)C([N+](=O)[O-])=C2N(Cc3ccc(Cl)nc3)CCN2C1c1cccc(Br)c1 (configuration not stated) | 75.8 |
| N#CC1(C#N)C(c2ccco2)C([N+](=O)[O-])=C2N(Cc3ccc(Cl)nc3)CCN2C1c1ccc(Cl)cc1Cl (configuration not stated) | 85.9 |
| N#CC1(C#N)C(c2ccco2)C([N+](=O)[O-])=C2N(Cc3ccc(Cl)nc3)CCN2C1c1ccc(OC(F)(F)F)cc1 (configuration not stated) | 0 |
| COc1ccc(C2N3CCN(Cc4ccc(Cl)nc4)C3=C([N+](=O)[O-])C(c3ccco3)C2(C#N)C#N)cc1 (configuration not stated) | 0 |

system: Aphis craccivora; test: Insecticidal activity against Aphis craccivora (cowpea aphid) infested tender soybean shoots exposed to compound solution assessed as insect mortality measured 24 hr post compound treatment (reference value: 4.1%); assay type: functional

| SMILES | LC50 [µM] |
| --- | --- |
| N#CC1(C#N)C(c2ccco2)C([N+](=O)[O-])=C2N(Cc3ccc(Cl)nc3)CCN2C1c1ccc(Cl)cc1C(F)(F)F (configuration not stated) | 87.2 |
| O=[N+]([O-])/N=C1\NCCN1Cc1ccc(Cl)nc1 [IMIDACLOPRID] | 35 |
| Cc1ccc(C2N3CCN(Cc4ccc(Cl)nc4)C3=C([N+](=O)[O-])C(c3ccco3)C2(C#N)C#N)c(F)c1 (configuration not stated) | 5.52 |
| N#CC1(C#N)C(c2ccco2)C([N+](=O)[O-])=C2N(Cc3ccc(Cl)nc3)CCN2C1c1cc(C(F)(F)F)ccc1F (configuration not stated) | 113 |
| N#CC1(C#N)C(c2ccco2)C([N+](=O)[O-])=C2N(Cc3ccc(Cl)nc3)CCN2C1c1ccc(C(F)(F)F)c(F)c1 (configuration not stated) | 87.4 |
